Experimental data reported in PMC11637875, “Discovery of novel PARP1/NRP1 dual-targeting inhibitors with strong antitumor potency” (Frontiers in Pharmacology, 2024).

Columns and labels:
FLT3 = FLT3 (Homo sapiens, UniProt P36888); assay: Selectivity profile (123 kinase panel); format: biochemical
MLK1 = MLK1 (Homo sapiens, UniProt P80192); assay: Selectivity profile (123 kinase panel); format: biochemical
DDR2 = DDR2 (Homo sapiens, UniProt Q16832); assay: Selectivity profile (123 kinase panel); format: biochemical
CLK1 = CLK1 (Homo sapiens, UniProt P49759); assay: Selectivity profile (123 kinase panel); format: biochemical
Sequence of CLK1 (P49759 whole entry): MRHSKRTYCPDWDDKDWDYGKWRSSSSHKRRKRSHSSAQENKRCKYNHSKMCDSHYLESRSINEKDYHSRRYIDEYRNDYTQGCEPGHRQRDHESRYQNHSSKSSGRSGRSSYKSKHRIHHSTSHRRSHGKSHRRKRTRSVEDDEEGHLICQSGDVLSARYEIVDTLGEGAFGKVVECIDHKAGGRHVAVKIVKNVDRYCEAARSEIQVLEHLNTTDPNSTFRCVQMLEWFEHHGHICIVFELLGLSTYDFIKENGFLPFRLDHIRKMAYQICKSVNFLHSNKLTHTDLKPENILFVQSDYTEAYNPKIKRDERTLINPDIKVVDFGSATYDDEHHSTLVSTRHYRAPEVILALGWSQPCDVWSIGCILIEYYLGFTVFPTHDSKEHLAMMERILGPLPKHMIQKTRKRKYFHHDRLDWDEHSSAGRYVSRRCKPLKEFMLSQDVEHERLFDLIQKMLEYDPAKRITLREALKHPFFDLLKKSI

DAPK1 = DAPK1 (Homo sapiens, UniProt P53355); assay: Selectivity profile (123 kinase panel); format: biochemical
Sequence of DAPK1 (P53355 whole entry): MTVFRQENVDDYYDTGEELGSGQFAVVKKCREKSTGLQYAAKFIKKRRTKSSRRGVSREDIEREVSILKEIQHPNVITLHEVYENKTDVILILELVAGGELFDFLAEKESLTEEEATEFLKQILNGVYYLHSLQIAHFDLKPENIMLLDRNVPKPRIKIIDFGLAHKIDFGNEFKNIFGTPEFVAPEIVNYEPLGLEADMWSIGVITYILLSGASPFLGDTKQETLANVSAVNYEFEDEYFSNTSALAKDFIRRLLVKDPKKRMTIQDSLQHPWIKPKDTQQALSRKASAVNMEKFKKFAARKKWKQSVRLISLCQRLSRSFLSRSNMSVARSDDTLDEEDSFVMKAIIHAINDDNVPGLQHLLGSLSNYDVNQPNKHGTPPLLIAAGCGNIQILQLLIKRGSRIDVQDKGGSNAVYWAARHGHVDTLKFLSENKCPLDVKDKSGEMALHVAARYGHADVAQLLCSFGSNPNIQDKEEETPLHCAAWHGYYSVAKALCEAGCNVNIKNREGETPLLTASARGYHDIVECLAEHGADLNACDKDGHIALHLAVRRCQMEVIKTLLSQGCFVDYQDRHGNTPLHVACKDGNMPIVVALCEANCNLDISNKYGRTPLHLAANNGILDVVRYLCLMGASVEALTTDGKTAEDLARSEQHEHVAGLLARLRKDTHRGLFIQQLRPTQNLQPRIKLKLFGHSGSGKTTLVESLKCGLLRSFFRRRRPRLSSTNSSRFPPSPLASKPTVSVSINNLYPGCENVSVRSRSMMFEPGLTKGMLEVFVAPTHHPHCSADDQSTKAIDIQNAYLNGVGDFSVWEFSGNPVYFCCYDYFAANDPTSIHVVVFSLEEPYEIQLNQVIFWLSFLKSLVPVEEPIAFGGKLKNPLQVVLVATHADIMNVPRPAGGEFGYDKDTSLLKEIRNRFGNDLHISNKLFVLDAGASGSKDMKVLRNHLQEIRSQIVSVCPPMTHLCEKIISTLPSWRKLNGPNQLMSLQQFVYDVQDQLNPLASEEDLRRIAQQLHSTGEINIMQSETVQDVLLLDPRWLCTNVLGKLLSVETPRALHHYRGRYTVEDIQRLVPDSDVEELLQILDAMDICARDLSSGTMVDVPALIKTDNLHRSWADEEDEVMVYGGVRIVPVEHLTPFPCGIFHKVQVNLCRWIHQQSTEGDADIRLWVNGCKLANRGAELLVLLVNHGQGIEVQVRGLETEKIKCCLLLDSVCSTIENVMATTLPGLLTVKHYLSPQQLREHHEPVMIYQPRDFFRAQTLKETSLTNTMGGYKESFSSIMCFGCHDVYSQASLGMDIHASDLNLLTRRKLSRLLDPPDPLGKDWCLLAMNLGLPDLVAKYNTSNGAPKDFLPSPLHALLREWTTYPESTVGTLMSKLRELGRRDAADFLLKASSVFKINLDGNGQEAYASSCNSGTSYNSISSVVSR

EPHB4 = EPHB4 (Homo sapiens, UniProt P54760); assay: Selectivity profile (123 kinase panel); format: biochemical
JNK3 = JNK3 (Homo sapiens, UniProt P53779); assay: Selectivity profile (123 kinase panel); format: biochemical
FRK = FRK (Homo sapiens, UniProt P42685); assay: Selectivity profile (123 kinase panel); format: biochemical
PARP13 = PARP13 (Homo sapiens, UniProt Q7Z2W4); assay: Selectivity profile (other isoforms of PARP and NRP family); format: biochemical
FAK = FAK (Homo sapiens, UniProt Q05397); assay: Selectivity profile (123 kinase panel); format: biochemical
FGFR1 = FGFR1 (Homo sapiens, UniProt P11362); assay: Selectivity profile (123 kinase panel); format: biochemical
CaMK2α = CaMK2α (Homo sapiens, UniProt Q9UQM7); assay: Selectivity profile (123 kinase panel); format: biochemical
DYRK1B = DYRK1B (Homo sapiens, UniProt Q9Y463); assay: Selectivity profile (123 kinase panel); format: biochemical
BRSK2 = BRSK2 (Homo sapiens, UniProt Q8IWQ3); assay: Selectivity profile (123 kinase panel); format: biochemical
PARP7 = PARP7 (Homo sapiens, UniProt Q7Z3E1); assay: Selectivity profile (other isoforms of PARP and NRP family); format: biochemical
HUVECs = assay: Tube formation analysis; format: cell-based, human
Description: 50 μL of thawed Matrigel (#356234, BD Biosciences, United States) was added to a 96-well plate and incubated at 37°C for 30 min. After Matrigel gelation, HUVECs (1 × 10^5 cells/mL) were seeded into the basement membrane matrix. Each well was filled with 100 μL of cell suspension. […] Finally, five randomly selected fields per well were photographed with an inverted light microscope. The results were analyzed by ImageJ software to measure and record the number of branch points and tube length for each field. The specific steps are to download the “angiogenesis analyzer” plugin and click on ImageJ, Plugings, Macros, Install, angiogenesis analyzer in sequence. At least three parallel replicates were performed for each condition. The relative number of tubes formation was analyzed using GraphPad Prism 9 software.

MARK4 = MARK4 (Homo sapiens, UniProt Q96L34); assay: Selectivity profile (123 kinase panel); format: biochemical
Sequence of MARK4 (Q96L34 whole entry): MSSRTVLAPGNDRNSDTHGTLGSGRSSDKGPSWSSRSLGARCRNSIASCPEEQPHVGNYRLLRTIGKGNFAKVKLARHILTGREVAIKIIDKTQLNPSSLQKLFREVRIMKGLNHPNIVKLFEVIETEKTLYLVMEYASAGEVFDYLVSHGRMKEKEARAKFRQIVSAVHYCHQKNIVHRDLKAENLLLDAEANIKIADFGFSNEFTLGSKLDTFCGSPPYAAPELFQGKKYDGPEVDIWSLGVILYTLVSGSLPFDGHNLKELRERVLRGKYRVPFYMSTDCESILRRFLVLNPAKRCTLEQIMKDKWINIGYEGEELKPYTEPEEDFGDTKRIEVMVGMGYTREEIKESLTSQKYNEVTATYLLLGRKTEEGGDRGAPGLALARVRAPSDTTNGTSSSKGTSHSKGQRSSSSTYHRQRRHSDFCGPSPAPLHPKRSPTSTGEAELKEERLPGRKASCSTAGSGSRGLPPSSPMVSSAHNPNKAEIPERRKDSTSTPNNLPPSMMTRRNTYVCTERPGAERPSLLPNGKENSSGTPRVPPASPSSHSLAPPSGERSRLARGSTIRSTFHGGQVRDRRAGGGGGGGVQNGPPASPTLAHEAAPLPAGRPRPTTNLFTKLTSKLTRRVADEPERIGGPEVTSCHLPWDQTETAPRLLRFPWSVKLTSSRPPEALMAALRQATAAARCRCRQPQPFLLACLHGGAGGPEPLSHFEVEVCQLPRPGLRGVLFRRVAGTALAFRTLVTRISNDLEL

JAK3 = JAK3 (Homo sapiens, UniProt P52333); assay: Selectivity profile (123 kinase panel); format: biochemical
Erk7 = Erk7 (Homo sapiens, UniProt Q8TD08); assay: Selectivity profile (123 kinase panel); format: biochemical
Sequence of Erk7 (Q8TD08 whole entry, species assumed): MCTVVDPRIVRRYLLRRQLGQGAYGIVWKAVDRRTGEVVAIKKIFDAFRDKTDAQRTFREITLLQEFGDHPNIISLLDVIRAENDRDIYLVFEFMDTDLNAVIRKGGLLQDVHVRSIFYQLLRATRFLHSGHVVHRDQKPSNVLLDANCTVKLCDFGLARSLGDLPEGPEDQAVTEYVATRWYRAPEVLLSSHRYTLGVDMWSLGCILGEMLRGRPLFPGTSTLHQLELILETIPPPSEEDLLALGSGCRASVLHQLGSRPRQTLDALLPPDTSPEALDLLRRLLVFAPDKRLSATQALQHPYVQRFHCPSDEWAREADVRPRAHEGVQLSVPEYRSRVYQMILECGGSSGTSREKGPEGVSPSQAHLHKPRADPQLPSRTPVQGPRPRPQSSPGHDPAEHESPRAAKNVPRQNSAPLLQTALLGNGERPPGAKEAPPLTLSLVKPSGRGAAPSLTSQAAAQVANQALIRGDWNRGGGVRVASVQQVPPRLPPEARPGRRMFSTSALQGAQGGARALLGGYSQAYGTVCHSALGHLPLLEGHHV

CK1ε = CK1ε (Homo sapiens, UniProt P49674); assay: Selectivity profile (123 kinase panel); format: biochemical
KHS = KHS (Homo sapiens, UniProt Q9Y4K4); assay: Selectivity profile (123 kinase panel); format: biochemical
Sequence of KHS (Q9Y4K4 whole entry): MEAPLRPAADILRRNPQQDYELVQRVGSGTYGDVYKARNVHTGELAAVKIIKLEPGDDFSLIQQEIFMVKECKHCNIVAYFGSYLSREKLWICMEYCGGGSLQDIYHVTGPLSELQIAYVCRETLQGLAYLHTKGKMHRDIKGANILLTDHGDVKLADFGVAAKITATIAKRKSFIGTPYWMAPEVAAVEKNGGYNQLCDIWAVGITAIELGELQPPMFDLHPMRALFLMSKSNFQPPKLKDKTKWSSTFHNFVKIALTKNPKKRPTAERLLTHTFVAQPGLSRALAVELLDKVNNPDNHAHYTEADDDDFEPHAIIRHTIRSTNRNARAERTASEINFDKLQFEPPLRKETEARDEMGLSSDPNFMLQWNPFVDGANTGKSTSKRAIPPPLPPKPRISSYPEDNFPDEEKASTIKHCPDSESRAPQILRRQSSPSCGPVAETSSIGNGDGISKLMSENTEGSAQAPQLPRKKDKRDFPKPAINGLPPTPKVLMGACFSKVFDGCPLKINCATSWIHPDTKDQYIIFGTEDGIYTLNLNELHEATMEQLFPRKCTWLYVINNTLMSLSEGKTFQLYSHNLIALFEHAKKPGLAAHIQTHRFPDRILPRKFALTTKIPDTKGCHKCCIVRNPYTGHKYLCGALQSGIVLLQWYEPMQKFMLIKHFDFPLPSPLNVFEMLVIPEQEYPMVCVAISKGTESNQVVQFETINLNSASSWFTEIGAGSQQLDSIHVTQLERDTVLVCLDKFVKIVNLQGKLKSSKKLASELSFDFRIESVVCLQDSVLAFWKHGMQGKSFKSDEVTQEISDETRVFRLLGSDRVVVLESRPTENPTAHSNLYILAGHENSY

NRP1 = biological target: T1, NRP1 (Homo sapiens, UniProt O14786); assay: In vitro NRP1 inhibition assay (125I-VEGF-A binding displacement, NRP1-transfected HUVEC cells); details: 125I-VEGF-A165 binding competition, 2 h, 4°C
T1 construct: expressed in transfected cells; host or cells: HUVEC, adenovirus NRP1
Description: The method was performed as described previously ([Jarvis et al., 2010]). Radiolabeled binding displacement experiments were performed as described previously ([Jia et al., 2006]). Confluent adenovirus NRP1-transfected HUVEC cells in 96-well plates were washed twice with PBS. At 4°C various concentrations of compounds diluted in binding medium (Dulbecco’s modified Eagle’s medium, 25 mM HEPES, pH 7.3, containing 0.1% BSA) were added, followed by addition of the indicated concentration of ^125I-VEGF-A (1,200–1800 Ci/mmol, GE Healthcare, United Kingdom). After 2 h of incubation at 4°C, the medium was aspirated, and washed four times with cold phosphate-buffered saline. The cells were lysed with 0.25 M NaOH, 0.5% SDS solution, and the bound radioactivity of the lysates was measured. IC50 values were calculated from the competition curves of the compounds in the ^125I-VEGF-A165 binding assay using GraphPad Prism 9 software. Using log(inhibitors) vs response-Variable slope equation in the GraphPad Prism 9 to fit the curves. The equation was as follows: (Top and Bottom are the responses, respectively, at the top and bottom of the curve, Y is the inhibitory response at a given compound concentration X, and the Hillslope describes the steepness of the curve.) Y=Bottom+Top−Bottom/1+10^logIC50−xHillslope

MARK2 = MARK2 (Homo sapiens, UniProt Q7KZI7); assay: Selectivity profile (123 kinase panel); format: biochemical
EPHA2 = EPHA2 (Homo sapiens, UniProt P29317); assay: Selectivity profile (123 kinase panel); format: biochemical
ITK = ITK (Homo sapiens, UniProt Q08881); assay: Selectivity profile (123 kinase panel); format: biochemical
Sequence of ITK (Q08881 whole entry): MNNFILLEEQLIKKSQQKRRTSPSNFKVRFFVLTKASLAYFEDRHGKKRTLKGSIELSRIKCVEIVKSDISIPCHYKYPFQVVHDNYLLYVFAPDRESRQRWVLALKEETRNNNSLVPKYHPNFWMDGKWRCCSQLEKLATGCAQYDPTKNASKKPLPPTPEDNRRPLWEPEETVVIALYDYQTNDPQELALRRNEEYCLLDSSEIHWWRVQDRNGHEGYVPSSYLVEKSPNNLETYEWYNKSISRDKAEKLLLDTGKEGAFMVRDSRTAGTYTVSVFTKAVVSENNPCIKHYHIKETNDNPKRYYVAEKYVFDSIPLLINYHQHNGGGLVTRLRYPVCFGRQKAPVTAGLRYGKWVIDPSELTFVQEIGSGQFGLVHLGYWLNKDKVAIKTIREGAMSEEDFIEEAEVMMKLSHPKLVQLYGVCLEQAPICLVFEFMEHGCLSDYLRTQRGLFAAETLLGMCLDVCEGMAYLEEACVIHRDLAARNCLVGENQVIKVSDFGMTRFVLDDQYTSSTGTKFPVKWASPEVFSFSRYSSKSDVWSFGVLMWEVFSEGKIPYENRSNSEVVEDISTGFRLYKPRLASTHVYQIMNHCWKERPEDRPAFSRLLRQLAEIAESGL

CHK1 = CHK1 (Homo sapiens, UniProt O14757); assay: Selectivity profile (123 kinase panel); format: biochemical
CLK4 = CLK4 (Homo sapiens, UniProt Q9HAZ1); assay: Selectivity profile (123 kinase panel); format: biochemical
MST1 = MST1 (Homo sapiens, UniProt Q13043); assay: Selectivity profile (123 kinase panel); format: biochemical
ALK4 = ALK4 (Homo sapiens, UniProt P36896); assay: Selectivity profile (123 kinase panel); format: biochemical
EPHB2 = EPHB2 (Homo sapiens, UniProt P29323); assay: Selectivity profile (123 kinase panel); format: biochemical
IGF1R = IGF1R (Homo sapiens, UniProt P08069); assay: Selectivity profile (123 kinase panel); format: biochemical

IC50 (FLT3): > 10 µM | IC50 (MLK1): > 10 µM | IC50 (DDR2): > 10 µM | IC50 (CLK1): > 10 µM | IC50 (DAPK1): > 10 µM | IC50 (EPHB4): > 10 µM | IC50 (JNK3): > 10 µM | IC50 (FRK): > 10 µM | IC50 (PARP13): > 10 µM | IC50 (FAK): > 10 µM | IC50 (FGFR1): > 10 µM | IC50 (CaMK2α): > 10 µM | IC50 (DYRK1B): > 10 µM | IC50 (BRSK2): > 10 µM | IC50 (PARP7): > 10 µM | IC50 (MARK4): > 10 µM | IC50 (JAK3): > 10 µM | IC50 (CK1ε): > 10 µM | IC50 (KHS): > 10 µM | IC50 (NRP1): 0.0245 ± 0.00216 µM | IC50 (MARK2): > 10 µM | IC50 (EPHA2): > 10 µM | IC50 (ITK): > 10 µM | IC50 (CHK1): > 10 µM | IC50 (CLK4): > 10 µM | IC50 (MST1): > 10 µM | IC50 (ALK4): > 10 µM | IC50 (EPHB2): > 10 µM | IC50 (IGF1R): > 10 µM
SMILES: NC(N)=NCCC[C@H](NCN1CCN(C(=O)c2cc(Cc3n[nH]c(=O)c4ccccc34)ccc2F)CC1)C(=O)O [PPNR-4]
tube formation (HUVECs; 2, 6, and 18 μM, compared with the control group): significantly interfered with tube formation in a dose-dependent manner | activity at 6 µM (HUVECs; Homo sapiens, HUVEC, 8 h, 6 μM, 8 h, single replicates, read-out: Relative number of tube formations (% of control)): 6% | activity at 18 µM (HUVECs; Homo sapiens, HUVEC, 8 h, 18 μM, 8 h, single replicates, read-out: Relative number of tube formations (% of control)): 0% | IC50 (Erk7): > 10 µM
